From patent publication US10597388B2, “Pyridazinone herbicides” (FMC CORPORATION, priority 2014, dated 2020)

Tests used:
Type in all cases: in vivo
[1] = system: wheat (winter wheat, Triticum aestivum); experiment: Test C greenhouse herbicide test, pre- and postemergence
In short: (§1)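 Percent-control ratings (0 none, 100 complete) came from visual comparison with controls held alongside in the greenhouse for 13–15 d. Treatments covered soil application at sowing and foliar application to young plants 2–18 cm tall.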

soybean (Glycine max) = experiment: as above
In short: as §1

[2] = system: sedge, umbrella (small-flower umbrella sedge, Cyperus difformis); experiment: Test B flooded paddy test; settings: 250 g ai/ha, Flood, visual rating on scale of 0 to 100 where 0 is no effect and 100 is complete control, 13 to 15 d after treatment
In short: (§2)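 Ratings use a 0-100 visual scale, where 100 is complete control, and compare treated plants with controls after 13 to 15 d of greenhouse growth. Compound went straight into paddy water kept 3 cm over the soil surface, applied to seedlings at the 2-leaf stage.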

rice (Oryza sativa) = experiment: Test B flooded paddy test; settings: 250 g ai/ha, Flood, visual rating on scale of 0 to 100 where 0 is no effect and 100 is complete control, 13 to 15 d after treatment
In short: as §2

[3] = system: barnyardgrass (Echinochloa crus-galli); experiment: Test B flooded paddy test; settings: 250 g ai/ha, Flood, visual rating on scale of 0 to 100 where 0 is no effect and 100 is complete control, 13 to 15 d after treatment
In short: as §2

[4] = system: ducksalad (Heteranthera limosa); experiment: Test B flooded paddy test; settings: 250 g ai/ha, Flood, visual rating on scale of 0 to 100 where 0 is no effect and 100 is complete control, 13 to 15 d after treatment
In short: as §2

[5] = system: waterhemp_RES2 (ALS & HPPD resistant common waterhemp, Amaranthus rudis); experiment: Test E greenhouse herbicide test, postemergence
Protocol: (§3) At the same time, plants from these crop and weed species and also waterhemp_RES1, (ALS & Triazine resistant common waterhemp, Amaranthus rudis), and waterhemp_RES2, (ALS & HPPD resistant common waterhemp, Amaranthus rudis) were planted in pots containing Redi-Earth® planting medium (Scotts Company, 14111 Scottslawn Road, Marysville, Ohio 43041) comprising spaghnum peat moss, vermiculite, wetting agent and starter nutrients were treated with postemergence applications of test chemicals formulated in the same manner. Plants ranged in height from 2 to 18 cm for postemergence treatments (1- to 4-leaf stage). Treated plants and controls were maintained in a greenhouse for 14 to 21 d, after which time all species were compared to controls and visually evaluated. Plant response ratings, summarized in Table E, are based on a scale of 0 to 100 where 0 is no effect and 100 is complete control. A dash (-) response means no test result.

[6] = system: waterhemp_RES1 (ALS & Triazine resistant common waterhemp, Amaranthus rudis); experiment: Test E greenhouse herbicide test, postemergence
Protocol: as §3

[7] = system: chickweed (common chickweed, Stellaria media); experiment: Test C greenhouse herbicide test, postemergence
In short: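 Postemergence foliar treatment, 1- to 4-leaf stage (2–18 cm), peat/vermiculite medium; greenhouse 13–15 d; visual rating vs controls, 0 = no effect, 100 = complete control; dash = no result.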

[8] = Postemergence, 31 g ai/ha, 0 to 100 scale (0 no effect, 100 complete control)
[9] = Postemergence, 125 g ai/ha, scale 0 to 100, 0 is no effect, 100 is complete control
[10] = Postemergence, 250 g ai/ha, scale 0 to 100, 0 no effect, 100 complete control, 13 to 15 d
[11] = Preemergence, 31 g ai/ha, scale 0 to 100, 0 is no effect, 100 is complete control
[12] = Preemergence, 62 g ai/ha, scale 0 to 100, 0 is no effect, 100 is complete control
[13] = Preemergence, 125 g ai/ha, scale 0 to 100, 0 is no effect, 100 is complete control
[14] = Preemergence, 250 g ai/ha, scale 0 to 100 (0 no effect, 100 complete control)
[15] = postemergence, 62 g ai/ha, scale 0 to 100, 0 no effect, 100 complete control
[16] = 31 g ai/ha, visual, scale 0 no effect to 100 complete control
[17] = 62 g ai/ha, scale 0 to 100 (0 no effect, 100 complete control)
[18] = 125 g ai/ha, scale 0 to 100 (0 no effect, 100 complete control)
[19] = 250 g ai/ha, scale 0 to 100 (0 no effect, 100 complete control)
[20] = Postemergence, 31 g ai/ha, scale 0 to 100 (0 no effect, 100 complete control)
[21] = 16 g ai/ha, visual, scale 0 no effect to 100 complete control

Structure (SMILES)	Plant response rating, Wheat [1, 9]	Plant response rating, Wheat [1, 10]	Plant response rating, Wheat [1, 11]	Plant response rating, Wheat [1, 12]	Plant response rating, Wheat [1, 13]	Wheat plant response rating [1, 14]	Wheat plant response rating [1, 15]	Plant response rating, Soybean (soybean (Glycine max); [9])	Plant response rating, Soybean (soybean (Glycine max); [10])	Plant response rating, Soybean (soybean (Glycine max); [11])	Plant response rating, Soybean (soybean (Glycine max); [12])	Plant response rating, Soybean (soybean (Glycine max); [13])	Soybean plant response rating (soybean (Glycine max); [14])	Soybean plant response rating (soybean (Glycine max); [15])	Plant response rating, Waterhemp_RES2 [5, 16]	Plant response rating, Waterhemp_RES2 [5, 18]	Plant response rating, Waterhemp_RES1 [6, 16]	Plant response rating, Chickweed [7, 9]	Plant response rating, Chickweed [7, 10]	Chickweed plant response rating [7, 15]	other results
CCC(=O)Oc1c(C)nn(C)c(=O)c1-c1c(C)sc2ccc(C)cc12 [Compound 42]	0	0	0	0	0	5	0	10	15	35	0	0	5	5	60	70	75	100	100	100	Wheat plant response rating [1, 8]: 0; Soybean plant response rating (soybean (Glycine max); [8]): 0; Plant response rating, Sedge, Umbrella [2]: 0; Plant response rating, Rice (rice (Oryza sativa)): 0; Plant response rating, Barnyardgrass [3]: 0; Plant response rating, Ducksalad [4]: 0; Plant response rating, Waterhemp_RES2 [5, 17]: 65; Plant response rating, Waterhemp_RES2 [5, 19]: 80; Plant response rating, Waterhemp_RES1 [6, 17]: 75; Plant response rating, Waterhemp_RES1 [6, 18]: 70; Plant response rating, Waterhemp_RES1 [6, 19]: 98; Chickweed plant response rating [7, 8]: 90
CCC(=O)Oc1c(C)nn(C)c(=O)c1-c1c(C)sc2ccc(Cl)cc12 [Compound 109]	10	35	0	10	10	15	–	30	25	0	0	0	0	–	50	60	70	95	100	95	Plant response rating, Wheat [1, 20]: 0; Plant response rating, Soybean (soybean (Glycine max); [20]): 0; Plant response rating, Waterhemp_RES1 [6, 21]: 60; Plant response rating, Waterhemp_RES1 [6, 18]: 90; Plant response rating, Chickweed [7, 20]: 80
CC(=O)Oc1c(C)nn(C)c(=O)c1-c1ccc(F)c2ccccc12 [Compound 90]	10	30	5	0	35	40	10	55	70	0	0	10	100	50	50	70	50	95	98	90	Plant response rating, Waterhemp_RES2 [5, 21]: 50; Plant response rating, Waterhemp_RES1 [6, 21]: 50; Plant response rating, Waterhemp_RES1 [6, 18]: 80; Chickweed plant response rating [7, 8]: 90
CC(=O)Oc1c(C)nn(C)c(=O)c1-c1c(C)oc2ccc(C)cc12 [Compound 14, 5-(acetyloxy)-4-(2,5-dimethyl-3-benzofuranyl)-2,6-dimethyl-3(2H)-pyridazinone]	5	5	–	–	–	–	0	5	5	–	–	–	–	0	–	–	–	90	90	90	Wheat plant response rating [1, 8]: 0; Soybean plant response rating (soybean (Glycine max); [8]): 0; pest or weed control at 250 g/ha ([2]; Cyperus difformis, 360 h, read-out: Plant response rating, Sedge, Umbrella): 0%; plant injury at 250 g/ha (rice (Oryza sativa); Oryza sativa, 360 h, read-out: Plant response rating, Rice): 0%; pest or weed control at 250 g/ha ([3]; Echinochloa crus-galli, 360 h, read-out: Plant response rating, Barnyardgrass): 0%; pest or weed control at 250 g/ha ([4]; Heteranthera limosa, 360 h, read-out: Plant response rating, Ducksalad): 0%; Chickweed plant response rating [7, 8]: 90
